# Measured values as given in PubChem BioAssay (NCI).
#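 96-well plates; 48 h exposure; 5 concentrations. Endpoints by linear interpolation between flanking doses. Not reached: highest tested concentration assigned. GI50 = concentration required for 50% inhibition of growth. TGI marks complete inhibition of growth.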
# Experiments:
# Experiment in all cases: growth of human tumour cells (NCI), 48 h
# [1] = test system: 786-0 renal
# [2] = test system: A498 renal
# [3] = test system: A549 NSCLC
# [4] = test system: ACHN renal
# [5] = test system: BT-549 breast
# [6] = test system: CAKI-1 renal
# [7] = test system: CCRF-CEM leukemia
# [8] = test system: COLO 205 colon
# [9] = test system: DU-145 prostate
# [10] = test system: EKVX NSCLC
# [11] = test system: HCC-2998 colon
# [12] = test system: HCT-116 colon
# [13] = test system: HCT-15 colon
# [14] = test system: HL-60(TB) leukemia
# [15] = test system: HOP-62 NSCLC
# [16] = test system: HOP-92 NSCLC
# [17] = test system: HS 578T breast
# [18] = test system: HT29 colon
# [19] = test system: IGROV1 ovarian
# [20] = test system: K-562 leukemia
# [21] = test system: KM12 colon
# [22] = test system: LOX IMVI melanoma
# [23] = test system: M14 melanoma
# [24] = test system: MALME-3M melanoma
# [25] = test system: MCF7 breast
# [26] = test system: MDA-MB-231 breast
# [27] = test system: MDA-MB-435
# [28] = test system: MDA-MB-468 breast
# [29] = test system: MOLT-4 leukemia
# [30] = test system: NCI-H226 lung
# [31] = test system: NCI-H23 lung
# [32] = test system: NCI-H460 lung
# [33] = test system: NCI-H522 lung
# [34] = test system: NCI/ADR-RES ovarian
# [35] = test system: OVCAR-3 ovarian
# [36] = test system: OVCAR-4 ovarian
# [37] = test system: OVCAR-5 ovarian
# [38] = test system: OVCAR-8 ovarian
# [39] = test system: PC-3 prostate
# [40] = test system: RPMI-8226 leukemia
# [41] = test system: RXF 393 renal
# [42] = test system: SF-268 CNS
# [43] = test system: SF-295 CNS
# [44] = test system: SF-539 CNS
# [45] = test system: SK-MEL-2 melanoma
# [46] = test system: SK-MEL-28 melanoma
# [47] = test system: SK-MEL-5 melanoma
# [48] = test system: SK-OV-3 ovarian
# [49] = test system: SN12C renal
# [50] = test system: SNB-19 CNS
# [51] = test system: SNB-75 CNS
# [52] = test system: SR leukemia
# [53] = test system: SW-620 colon
# [54] = test system: T-47D breast
# [55] = test system: TK-10 renal
# [56] = test system: U251 CNS
# [57] = test system: UACC-257 melanoma
# [58] = test system: UACC-62 melanoma
# [59] = test system: UO-31 renal
structure (smiles),measurement,setting,value
COc1cc2nc(SCc3ccccc3)n(-c3ccc(Cl)cc3)c(=O)c2cc1OC,GI50,[1],3.84 µM
same,TGI,[1],15.6 µM
same,GI50,[2],19.6 µM
same,TGI,[2],45.2 µM
same,GI50,[3],8.69 µM
same,TGI,[3],29.6 µM
same,GI50,[4],4.69 µM
same,TGI,[4],19 µM
same,GI50,[5],22 µM
same,TGI,[5],82.4 µM
same,GI50,[6],3.34 µM
same,TGI,[6],13.7 µM
same,GI50,[7],38.1 µM
same,TGI,[7],> 100 µM
same,GI50,[8],29.4 µM
same,TGI,[8],> 100 µM
same,GI50,[9],22.3 µM
same,TGI,[9],98.1 µM
same,GI50,[10],16.6 µM
same,TGI,[10],50.5 µM
same,GI50,[11],22.5 µM
same,TGI,[11],> 100 µM
same,GI50,[12],5.09 µM
same,TGI,[12],23.4 µM
same,GI50,[13],19 µM
same,TGI,[13],> 100 µM
same,GI50,[14],> 100 µM
same,TGI,[14],> 100 µM
same,GI50,[15],4.65 µM
same,TGI,[15],18.4 µM
same,GI50,[16],16.1 µM
same,TGI,[16],49 µM
same,GI50,[17],6.63 µM
same,TGI,[17],48.6 µM
same,GI50,[18],40.4 µM
same,TGI,[18],> 100 µM
same,GI50,[19],20.8 µM
same,TGI,[19],80.4 µM
same,GI50,[20],12 µM
same,TGI,[20],35.6 µM
same,GI50,[21],> 100 µM
same,TGI,[21],> 100 µM
same,GI50,[22],5.77 µM
same,TGI,[22],18.9 µM
same,GI50,[23],42.7 µM
same,TGI,[23],> 100 µM
same,GI50,[24],19.1 µM
same,TGI,[24],68.5 µM
same,GI50,[25],14.5 µM
same,TGI,[25],> 100 µM
same,GI50,[26],16.7 µM
same,TGI,[26],79.1 µM
same,GI50,[27],64.1 µM
same,TGI,[27],> 100 µM
same,GI50,[28],7.61 µM
same,TGI,[28],45.6 µM
same,GI50,[29],25.2 µM
same,TGI,[29],> 100 µM
same,GI50,[30],3.55 µM
same,TGI,[30],22.7 µM
same,GI50,[31],11.2 µM
same,TGI,[31],30.7 µM
same,GI50,[32],8.29 µM
same,TGI,[32],33.2 µM
same,GI50,[33],18.9 µM
same,TGI,[33],88.2 µM
same,GI50,[34],6.25 µM
same,TGI,[34],22.7 µM
same,GI50,[35],15.8 µM
same,TGI,[35],44.5 µM
same,GI50,[36],3.54 µM
same,TGI,[36],16.9 µM
same,GI50,[37],31 µM
same,TGI,[37],> 100 µM
same,GI50,[38],17.5 µM
same,TGI,[38],66.6 µM
same,GI50,[39],16.1 µM
same,TGI,[39],> 100 µM
same,GI50,[40],66.1 µM
same,TGI,[40],> 100 µM
same,GI50,[41],4.99 µM
same,TGI,[41],27.8 µM
same,GI50,[42],10.3 µM
same,TGI,[42],44.4 µM
same,GI50,[43],4.36 µM
same,TGI,[43],17.8 µM
same,GI50,[44],7.07 µM
same,TGI,[44],20.1 µM
same,GI50,[45],36.8 µM
same,TGI,[45],> 100 µM
same,GI50,[46],21.8 µM
same,TGI,[46],> 100 µM
same,GI50,[47],47.9 µM
same,TGI,[47],> 100 µM
same,GI50,[48],16.6 µM
same,TGI,[48],53 µM
same,GI50,[49],11.5 µM
same,TGI,[49],75.8 µM
same,GI50,[50],12.6 µM
same,TGI,[50],36 µM
same,GI50,[51],2.27 µM
same,TGI,[51],7.86 µM
same,GI50,[52],16.5 µM
same,TGI,[52],> 100 µM
same,GI50,[53],20.1 µM
same,TGI,[53],> 100 µM
same,GI50,[54],28.1 µM
same,TGI,[54],> 100 µM
same,GI50,[55],20.3 µM
same,TGI,[55],44.9 µM
same,GI50,[56],8.14 µM
same,TGI,[56],31.8 µM
same,GI50,[57],39.2 µM
same,TGI,[57],> 100 µM
same,GI50,[58],42.8 µM
same,TGI,[58],> 100 µM
same,GI50,[59],13.9 µM
same,TGI,[59],51.7 µM
